Experimental data reported in the supplement of paper PMC8671470.
± gives the standard deviation of the averaged measurements.

Columns and labels:
Conditions in all cases: 72 h
MV4-11 [1] = test system: MV4-11
Procedure, shortened: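 Each of fifteen myeloid leukaemia cell lines was seeded in RPMI 1640 at a density titrated to its linear growth range. The cells were incubated for 72 h at 37 °C and 5% CO2 with compounds at five tenfold doses from 1 to 10,000 nM, in duplicate. After ATP luminescence was normalised to vehicle and to a positive control at 10 µM, four-parameter log-logistic curves were fitted. These curves gave the IC50.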

HL-60 [2] = assay: cell viability (% survival relative to DMSO control); higher = less cytotoxic
Procedure, shortened: (§1)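 Area under the curve, where listed, was derived from four-parameter log-logistic fits with drc and PharmacoGx. These fits used CellTiter-Glo viability from HL-60 cells in RPMI 1640 with 10% FBS, normalised to DMSO wells and wells holding 10 μM proteasome inhibitor. The full library was rescreened on 384-well plates in duplicate at five tenfold concentrations, 1–10,000 nM, with DMSO or 100 nM of one of three metabolic inhibitors, for 72 h at 37 °C, 5% CO2.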

BV-173 = assay: cell viability (% survival relative to DMSO control, bortezomib = 0%); higher = less cytotoxic
Procedure, shortened: (§2)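 Percent survival figures are means of duplicate wells. They were obtained by CellTiter-Glo luminescence after 10 AML and 5 CML cell lines spent 72 h at 37 °C with 5% CO2 in 384-well plates with compounds at 1, 10, 100, 1000 or 10000 nM. Vehicle was set to 100% and a 10 µM positive control to 0%.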

HEL = assay: as above
Procedure, shortened: as §2

HL-60 [3] = assay: as above
Procedure, shortened: as §2

K-562 = assay: as above
Procedure, shortened: as §2

KCL-22 = assay: as above
Procedure, shortened: as §2

KG-1 = assay: as above
Procedure, shortened: as §2

KU-812 = assay: as above
Procedure, shortened: as §2

LAMA-84 = assay: as above
Procedure, shortened: as §2

ML-2 = assay: as above
Procedure, shortened: as §2

MOLM-13 = assay: as above
Procedure, shortened: as §2

MV4-11 [4] = assay: as above
Procedure, shortened: as §2

Mono-Mac-6 = assay: as above
Procedure, shortened: as §2

NOMO-1 = assay: as above
Procedure, shortened: as §2

SHI-1 = assay: as above
Procedure, shortened: as §2

THP-1 = assay: as above
Procedure, shortened: as §2

HL-60 [5] = assay: area under dose-response curve (viability, 1 nM-10 uM) (fraction (0-1)); higher = more sensitive
Procedure, shortened: as §1

Question: Which “IC50 (cell viability)” value (MV4-11 [1]) does the source give for `CCCCN1C[C@H](O)[C@@H](O)[C@H](O)[C@H]1CO` [Miglustat] here?
Answer: > 10 µM

Question: What about the cell viability (HL-60 [2]; 0.001 µM, co-treatment: AZD3965 100 nM) of the same compound?
Answer: 106 ± 3.3%

Question: What about the cell viability (HL-60 [2]; 0.001 µM, co-treatment: DMSO vehicle) of the same compound?
Answer: 101 ± 5.3%

Question: What about the cell viability (HL-60 [2]; 0.001 µM, co-treatment: GSK2194069 100 nM) of the same compound?
Answer: 91.5 ± 4.9%

Question: And the cell viability (HL-60 [2]; 0.001 µM, co-treatment: pictilisib 100 nM)?
Answer: 104 ± 2.5%

Question: And the cell viability (HL-60 [2]; 0.01 µM, co-treatment: AZD3965 100 nM)?
Answer: 98.2 ± 7.3%

Question: And the cell viability (HL-60 [2]; 0.01 µM, co-treatment: DMSO vehicle)?
Answer: 101 ± 7.8%

Question: And the cell viability (HL-60 [2]; 0.01 µM, co-treatment: GSK2194069 100 nM)?
Answer: 94.4 ± 10%

Question: What about the cell viability (HL-60 [2]; 0.01 µM, co-treatment: pictilisib 100 nM) of the same compound?
Answer: 109 ± 10%

Question: And the cell viability (HL-60 [2]; 0.1 µM, co-treatment: AZD3965 100 nM)?
Answer: 106 ± 6.2%

Question: What about the cell viability (HL-60 [2]; 0.1 µM, co-treatment: DMSO vehicle) of the same compound?
Answer: 103 ± 5.5%

Question: And the cell viability (HL-60 [2]; 0.1 µM, co-treatment: GSK2194069 100 nM)?
Answer: 104.5 ± 0.19%

Question: What about the cell viability (HL-60 [2]; 0.1 µM, co-treatment: pictilisib 100 nM) of the same compound?
Answer: 112 ± 28%

Question: What about the cell viability (HL-60 [2]; 1 µM, co-treatment: AZD3965 100 nM) of the same compound?
Answer: 96.6 ± 2.6%

Question: What about the cell viability (HL-60 [2]; 1 µM, co-treatment: DMSO vehicle) of the same compound?
Answer: 98.7 ± 2%

Question: What about the cell viability (HL-60 [2]; 1 µM, co-treatment: GSK2194069 100 nM) of the same compound?
Answer: 99.5 ± 5.5%

Question: What about the cell viability (HL-60 [2]; 1 µM, co-treatment: pictilisib 100 nM) of the same compound?
Answer: 107 ± 3.2%

Question: What about the cell viability (HL-60 [2]; 10 µM, co-treatment: AZD3965 100 nM) of the same compound?
Answer: 100 ± 4.3%

Question: And the cell viability (HL-60 [2]; 10 µM, co-treatment: DMSO vehicle)?
Answer: 98 ± 1.2%

Question: And the cell viability (HL-60 [2]; 10 µM, co-treatment: GSK2194069 100 nM)?
Answer: 101 ± 8.5%

Question: And the cell viability (HL-60 [2]; 10 µM, co-treatment: pictilisib 100 nM)?
Answer: 101 ± 4.7%

Question: What about the cell viability (BV-173; 1 nM) of the same compound?
Answer: 90.7%

Question: What about the cell viability (BV-173; 10 nM) of the same compound?
Answer: 104%

Question: And the cell viability (BV-173; 100 nM)?
Answer: 95.6%

Question: What about the cell viability (BV-173; 1000 nM) of the same compound?
Answer: 97.8%

Question: What about the cell viability (BV-173; 10000 nM) of the same compound?
Answer: 86.8%

Question: What about the cell viability (HEL; 1 nM) of the same compound?
Answer: 92.6%

Question: And the cell viability (HEL; 10 nM)?
Answer: 103%

Question: And the cell viability (HEL; 100 nM)?
Answer: 95.2%

Question: And the cell viability (HEL; 1000 nM)?
Answer: 101%

Question: What about the cell viability (HEL; 10000 nM) of the same compound?
Answer: 93.6%

Question: What about the cell viability (HL-60 [3]; 1 nM) of the same compound?
Answer: 87.6%

Question: And the cell viability (HL-60 [3]; 10 nM)?
Answer: 81.8%

Question: What about the cell viability (HL-60 [3]; 100 nM) of the same compound?
Answer: 98.7%

Question: And the cell viability (HL-60 [3]; 1000 nM)?
Answer: 101%

Question: And the cell viability (HL-60 [3]; 10000 nM)?
Answer: 91.8%

Question: And the cell viability (K-562; 1 nM)?
Answer: 94.4%

Question: What about the cell viability (K-562; 10 nM) of the same compound?
Answer: 95.8%

Question: What about the cell viability (K-562; 100 nM) of the same compound?
Answer: 94.4%

Question: And the cell viability (K-562; 1000 nM)?
Answer: 99.4%

Question: And the cell viability (K-562; 10000 nM)?
Answer: 89.9%

Question: And the cell viability (KCL-22; 1 nM)?
Answer: 90.9%

Question: What about the cell viability (KCL-22; 10 nM) of the same compound?
Answer: 82.1%

Question: What about the cell viability (KCL-22; 100 nM) of the same compound?
Answer: 97.8%

Question: And the cell viability (KCL-22; 1000 nM)?
Answer: 98.1%

Question: What about the cell viability (KCL-22; 10000 nM) of the same compound?
Answer: 82.9%

Question: What about the cell viability (KG-1; 1 nM) of the same compound?
Answer: 92.6%

Question: And the cell viability (KG-1; 10 nM)?
Answer: 102%

Question: What about the cell viability (KG-1; 100 nM) of the same compound?
Answer: 94.8%

Question: And the cell viability (KG-1; 1000 nM)?
Answer: 103%

Question: And the cell viability (KG-1; 10000 nM)?
Answer: 93.2%

Question: And the cell viability (KU-812; 1 nM)?
Answer: 87.9%

Question: And the cell viability (KU-812; 10 nM)?
Answer: 94.6%

Question: What about the cell viability (KU-812; 100 nM) of the same compound?
Answer: 89.5%

Question: And the cell viability (KU-812; 1000 nM)?
Answer: 105%

Question: And the cell viability (KU-812; 10000 nM)?
Answer: 86.7%

Question: And the cell viability (LAMA-84; 1 nM)?
Answer: 94.3%

Question: And the cell viability (LAMA-84; 10 nM)?
Answer: 97.8%

Question: What about the cell viability (LAMA-84; 100 nM) of the same compound?
Answer: 96.4%

Question: What about the cell viability (LAMA-84; 1000 nM) of the same compound?
Answer: 103%

Question: What about the cell viability (LAMA-84; 10000 nM) of the same compound?
Answer: 92.8%

Question: And the cell viability (ML-2; 1 nM)?
Answer: 95.4%

Question: And the cell viability (ML-2; 10 nM)?
Answer: 112%

Question: And the cell viability (ML-2; 100 nM)?
Answer: 86.5%

Question: And the cell viability (ML-2; 1000 nM)?
Answer: 101%

Question: And the cell viability (ML-2; 10000 nM)?
Answer: 94.9%

Question: And the cell viability (MOLM-13; 1 nM)?
Answer: 90%

Question: And the cell viability (MOLM-13; 10 nM)?
Answer: 102%

Question: And the cell viability (MOLM-13; 100 nM)?
Answer: 90.7%

Question: And the cell viability (MOLM-13; 1000 nM)?
Answer: 93.9%

Question: And the cell viability (MOLM-13; 10000 nM)?
Answer: 90.8%

Question: And the cell viability (MV4-11 [4]; 1 nM)?
Answer: 99.2%

Question: And the cell viability (MV4-11 [4]; 10 nM)?
Answer: 91.3%

Question: What about the cell viability (MV4-11 [4]; 100 nM) of the same compound?
Answer: 103%

Question: What about the cell viability (MV4-11 [4]; 1000 nM) of the same compound?
Answer: 94.4%

Question: And the cell viability (MV4-11 [4]; 10000 nM)?
Answer: 92.2%

Question: What about the cell viability (Mono-Mac-6; 1 nM) of the same compound?
Answer: 82.9%

Question: What about the cell viability (Mono-Mac-6; 10 nM) of the same compound?
Answer: 90.4%

Question: What about the cell viability (Mono-Mac-6; 100 nM) of the same compound?
Answer: 92.4%

Question: What about the cell viability (Mono-Mac-6; 1000 nM) of the same compound?
Answer: 95.4%

Question: What about the cell viability (Mono-Mac-6; 10000 nM) of the same compound?
Answer: 92.7%

Question: And the cell viability (NOMO-1; 1 nM)?
Answer: 94.3%

Question: What about the cell viability (NOMO-1; 10 nM) of the same compound?
Answer: 98.4%

Question: What about the cell viability (NOMO-1; 100 nM) of the same compound?
Answer: 94%

Question: And the cell viability (NOMO-1; 1000 nM)?
Answer: 103%

Question: What about the cell viability (NOMO-1; 10000 nM) of the same compound?
Answer: 90%

Question: What about the cell viability (SHI-1; 1 nM) of the same compound?
Answer: 106%

Question: What about the cell viability (SHI-1; 10 nM) of the same compound?
Answer: 93%

Question: What about the cell viability (SHI-1; 100 nM) of the same compound?
Answer: 102%

Question: What about the cell viability (SHI-1; 1000 nM) of the same compound?
Answer: 98.6%

Question: And the cell viability (SHI-1; 10000 nM)?
Answer: 88.7%

Question: What about the cell viability (THP-1; 1 nM) of the same compound?
Answer: 91.1%

Question: What about the cell viability (THP-1; 10 nM) of the same compound?
Answer: 93.3%

Question: What about the cell viability (THP-1; 100 nM) of the same compound?
Answer: 89.6%

Question: What about the cell viability (THP-1; 1000 nM) of the same compound?
Answer: 102%

Question: What about the cell viability (THP-1; 10000 nM) of the same compound?
Answer: 94.7%

Question: What about the “area under dose-response curve” value (HL-60 [5]; co-treatment: AZD3965 100 nM) of the same compound?
Answer: < 0.0301

Question: And the “area under dose-response curve” value (HL-60 [5]; co-treatment: DMSO vehicle)?
Answer: < 0.0301

Question: And the “area under dose-response curve” value (HL-60 [5]; co-treatment: GSK2194069 100 nM)?
Answer: < 0.0301

Question: And the “area under dose-response curve” value (HL-60 [5]; co-treatment: pictilisib 100 nM)?
Answer: < 0.0301
